Results as given in US6479487B1, “6, 9-disubstituted 2-[trans-(4-aminocyclohexyl)amino] purines” (Aventis Pharmaceuticals Inc., priority 1998, dated 2002).
Values joined by “and” are separate entries in the source; they are usually repeats but may differ in a detail not shown here. Equal entries are not always repeated. Structures can show the parent of a compound that is named as a salt. Where two headings read alike, the source gives them in different places.

Key:
[1] = system: HT-29; test: In vitro tumor cell proliferation, HT-29; format: cell-based, human; conditions: many values given with an undefined *, read-out: In vitro Tumor Cell Proliferation (IC50, μM) Colon HT-29
Outline: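 Growth was quantified either with CyQUANT, plates frozen at −80° C after 3 days of drug, or by sulforhodamine B staining of TCA-fixed cells after 3 days of drug plus 4 days with fresh drug. Trypan blue-excluding HT-29 cells were plated overnight at 37° C before dosing.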

[2] = system: DU145; test: In vitro tumor cell proliferation, DU145; format: cell-based, human; conditions: many values given with an undefined *, read-out: In vitro Tumor Cell Proliferation (IC50, μM) Prostate DU145
Outline: (§1)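 Cells seeded overnight at 37° C, then exposed to drug diluted in medium; at 3 days medium and drug replenished for another 4 days. Growth read by sulforhodamine B staining after TCA fixation; alternatively by CyQUANT, with plates frozen at −80° C after 3 days of drug.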

[3] = system: DMS-114; test: In vitro tumor cell proliferation, DMS-114; format: cell-based, human; conditions: many values given with an undefined *, read-out: In vitro Tumor Cell Proliferation (IC50, μM) Lung DMS-114
Outline: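 Human small cell lung carcinoma DMS-114 cells plated overnight, then drug-treated for 3 days, medium and drug renewed, and incubated 4 more days. Growth read by sulforhodamine B staining after TCA fixation; alternatively by CyQUANT after 3 days' drug exposure and freezing at −80 °C.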

[4] = system: MDA-MB-231; test: In vitro tumor cell proliferation, MDA-MB-231; format: cell-based, human; conditions: sulforhodamine B or CyQUANT assay, many values given with an undefined *, read-out: In vitro Tumor Cell Proliferation (IC50, μM) Breast MDA-MB-231
Outline: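 Proliferation quantified by SRB staining of TCA-fixed cells after 3 days of drug plus 4 days with replenished drug, following overnight attachment at 37 °C.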

[5] = biological target: T1, cdk4/cyclin D1 (Homo sapiens, UniProt P11802); test: Cyclin-dependent Kinase 4 Assay (cdk4/cyclin D1, GST-Rb substrate); format: biochemical; conditions: cdk4/cyclin D1 insect cell lysate, 10 μM ATP, 30 min at 37° C., several values = separate determinations, read-out: CDK4 Inhibition IC50
T1 construct: made in house; host or cells: Sf9 insect cells (Bac-to-Bac baculovirus, pFastBac)
Outline: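 IC50 against cdk4 measured by scintillation counting of bead-bound GST-Rb (0.5 μg) after filtration and four TNEN washes. Reaction was 30 min at 37 °C in HEPES pH 7.5 buffer with 10 mM MgCl2 and 1 mM EGTA. Enzyme source was 0.1 μg Sf9 lysate coinfected with cdk4 and cyclin D1.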

[6] = system: MDA-MB-435; test: In vitro tumor cell proliferation, MDA-MB-435; format: cell-based; conditions: values given with an undefined *, read-out: In vitro Tumor Cell Proliferation (IC50, μM) Breast MDA-MB-435
Outline: as §1

[7] = system: Colo-205; test: In vitro tumor cell proliferation, Colo-205; format: cell-based; conditions: values given with an undefined *, read-out: In vitro Tumor Cell Proliferation (IC50, μM) Colon Colo-205
Outline: as §1

[8] = system: A549; test: In vitro tumor cell proliferation, A549; format: cell-based, human; conditions: many values given with an undefined *, read-out: In vitro Tumor Cell Proliferation (IC50, μM) Lung A549
Outline: as §1

[9] = biological target: T2, cdk2/cyclin E (Homo sapiens, UniProt P24941); test: Cyclin-Dependent Kinase 2 Assay (cdk2/cyclin E, GST-Rb substrate); format: biochemical; conditions: recombinant cdk2/cyclin E, 10 μM ATP, 30 min at 30° C., several values in a cell = separate determinations, read-out: CDK-2 Inhibition IC50
T2 construct: made in house; host or cells: insect cells (baculovirus co-infection)
Protocol: Substrate: GST-Rb as described above for cdk4/cyclin D1
Assay conditions for cdk2/cyclin E were identical to those for cdk4/cyclin D1 including the substrate. The concentration of recombinant cdk2/cyclin E in the assay was 0.1 μg per 100 μl assay. Incubation was for 30 min at 30° C.

[10] = system: PC-3; test: In vitro tumor cell proliferation, PC-3; format: cell-based, human; conditions: many values given with an undefined *, read-out: In vitro Tumor Cell Proliferation (IC50, μM) Prostate PC-3
Outline: as §1

[11] = Homo sapiens, MDA-MB-231, MDA-MB-231
[12] = Homo sapiens, MDA-MB-435, MDA-MB-435
[13] = Homo sapiens, COLO 205, Colo-205

T1 sequence (P11802 whole entry): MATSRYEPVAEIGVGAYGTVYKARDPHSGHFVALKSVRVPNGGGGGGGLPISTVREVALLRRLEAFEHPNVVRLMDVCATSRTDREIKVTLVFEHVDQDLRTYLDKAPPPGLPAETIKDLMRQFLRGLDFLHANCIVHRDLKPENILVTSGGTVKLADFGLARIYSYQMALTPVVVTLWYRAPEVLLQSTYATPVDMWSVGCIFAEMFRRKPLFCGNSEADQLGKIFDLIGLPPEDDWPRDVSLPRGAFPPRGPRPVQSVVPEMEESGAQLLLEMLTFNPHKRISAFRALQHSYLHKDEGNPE
T1 sequence (P24385 whole entry partner): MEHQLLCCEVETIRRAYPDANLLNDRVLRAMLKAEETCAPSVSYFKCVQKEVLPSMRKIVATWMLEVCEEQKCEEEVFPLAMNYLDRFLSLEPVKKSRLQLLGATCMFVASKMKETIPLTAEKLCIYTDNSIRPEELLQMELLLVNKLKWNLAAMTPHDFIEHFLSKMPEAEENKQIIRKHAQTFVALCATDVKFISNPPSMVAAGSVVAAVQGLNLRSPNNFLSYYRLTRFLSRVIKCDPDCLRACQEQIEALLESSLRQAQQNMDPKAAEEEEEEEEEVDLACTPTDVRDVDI

SMILES | IC50 ([1]; HT-29, trihydrochloride) | IC50 ([1]; Homo sapiens, HT-29, HT-29) | IC50 ([2]; DU145, trihydrochloride) | IC50 ([2]; Homo sapiens, DU-145, DU145) | IC50 ([3]; DMS-114, trihydrochloride) | IC50 ([3]; Homo sapiens, DMS-114, DMS-114) | IC50 [4, 11] | IC50 ([4]; MDA-MB-231, trihydrochloride) | IC50 [5] | IC50 [6, 12] | IC50 ([6]; MDA-MB-435, trihydrochloride) | IC50 ([7]; Colo-205, trihydrochloride) | IC50 [7, 13] | IC50 ([8]; A549, trihydrochloride) | IC50 ([8]; Homo sapiens, A549, A549) | IC50 [9] | IC50 ([10]; Homo sapiens, PC-3, PC-3) | IC50 ([10]; PC-3, trihydrochloride) | IC50 ([9]; trihydrochloride) | IC50 ([10]; PC-3)
N[C@H]1CC[C@H](Nc2nc(NCC3CCN(Cc4ccccc4)CC3)c3ncn(C4CCCC4)c3n2)CC1 [Example 147-ac, 2-[Trans-(4-aminocyclohexyl)amino]-6-[4-(1-benzyl)piperidinylmethylamino]-9-cyclopentylpurine trihydrochloride] | 0.93 µM | 1 µM | 0.66 µM | 0.71 µM | 1 µM | 1.4 µM | 0.79 µM | 0.75 µM | 3300 nM and 1200 nM | 0.97 µM | 1.1 µM | 0.66 µM | 0.61 µM | 0.62 µM | 0.47 µM | 170 nM and 370 nM and 530 nM and 400 nM | 0.78 µM | 0.82 µM | – | –
N[C@H]1CC[C@H](Nc2nc(NC3CCN(Cc4cccc(Oc5ccccc5)c4)CC3)c3ncn(C4CCCC4)c3n2)CC1 [Example 147-ad, 2-[Trans-(4-aminocyclohexyl)amino]-6-[4-[1-(3-phenoxybenzyl)]piperidinylamino]-9-cyclopentylpurine trihydrochloride] | 0.7 µM | 0.79 µM | 0.62 µM | 0.54 µM | 0.62 µM | 0.82 µM | 0.64 µM | – | 3000 nM and 3200 nM | 0.87 µM | 1 µM | 0.58 µM | 0.53 µM | 0.43 µM | 0.39 µM | 280 nM and 190 nM | 0.48 µM | 0.86 µM | – | –
N[C@H]1CC[C@H](Nc2nc(NC3CCN(Cc4ccccc4C(F)(F)F)CC3)c3ncn(C4CCCC4)c3n2)CC1 [Example 147-b, 2-[Trans-(4-aminocyclohexyl)amino]-6-[4-[1-(2-trifluoromethylbenzyl)]piperidinylamino]-9-cyclopentylpurine trihydrochloride] | 0.61 µM | 0.65 µM | 0.61 µM | 0.46 µM | 0.82 µM | 0.92 µM | 0.64 µM | 0.73 µM | 2400 nM and 4500 nM | 0.99 µM | 0.95 µM | 0.62 µM | 0.48 µM | 0.4 µM | 0.42 µM | 1200 nM and 920 nM | 0.63 µM | 0.78 µM | – | –
COc1cc(CN2CCC(Nc3nc(N[C@H]4CC[C@H](N)CC4)nc4c3ncn4C3CCCC3)CC2)cc(OC)c1 [Example 147-c, 2-[Trans-(4-aminocyclohexyl)amino]-6-[4-[1-(3,5-dimethoxybenzyl)]piperidinylamino-9-cyclopentylpurinetrihydrochloride] | 0.3 µM | 0.32 µM | 0.3 µM | 0.21 µM | 0.32 µM | 0.3 µM | 0.23 µM | 0.27 µM | 670 nM and 600 nM | 0.33 µM | 0.34 µM | 0.2 µM | 0.19 µM | 0.24 µM | 0.18 µM | 560 nM and 270 nM and 450 nM | 0.22 µM | 0.33 µM | – | –
N[C@H]1CC[C@H](Nc2nc(NC3CCN(Cc4cc(C(F)(F)F)cc(C(F)(F)F)c4)CC3)c3ncn(C4CCCC4)c3n2)CC1 [Example 147-d, 2-[Trans-(4-aminocyclohexyl)amino]-6-[4-[1-[3,5-bis(trifluoromethyl)benzyl]]piperidinylamino]-9-cyclopentylpurine trihydrochloride] | 0.44 µM and 0.34 µM | – | 0.69 µM and 0.58 µM | – | 0.34 µM and 0.36 µM | – | – | 0.47 µM and 0.42 µM | 64000 nM | – | 0.69 µM and 0.94 µM | 0.38 µM and 0.52 µM | – | 0.23 µM and 0.25 µM | – | – | – | – | 890 nM and 530 nM and 750 nM | 0.66 µM
N[C@H]1CC[C@H](Nc2nc(NC3CCN(Cc4cccc(F)c4F)CC3)c3ncn(C4CCCC4)c3n2)CC1 [Example 147-e, 2-[Trans-(4-aminocyclohexyl)amino]-6-[4-1-(2,3-difluorobenzyl)]piperidinylamino]-9-cyclopentylpurine trihydrochloride] | 0.3 µM | 0.59 µM | 0.41 µM | 0.35 µM | 0.5 µM | 0.58 µM | 0.58 µM | 0.3 µM | 2700 nM and 4600 nM | 0.62 µM | 0.6 µM | 0.32 µM | 0.34 µM | 0.3 µM | 0.35 µM | 340 nM and 230 nM and 460 nM | 0.47 µM | 0.35 µM | – | –
N[C@H]1CC[C@H](Nc2nc(NC3CCN(Cc4cc(F)cc(F)c4)CC3)c3ncn(C4CCCC4)c3n2)CC1 [Example 147-g, 2-[Trans-(4-aminocyclohexyl)amino]-6-[4-1 1-(3.5-difluorobenzyl)]piperidinylamino]-9-cyclopentylpurine trihydrochloride] | 0.29 µM | – | 0.25 µM | 0.22 µM | 0.26 µM | 0.32 µM | 0.29 µM | – | 3500 nM and 2000 nM | 0.3 µM | 0.41 µM | 0.13 µM | 0.18 µM | 0.14 µM | 0.19 µM | 330 nM and 290 nM | 0.21 µM | 0.39 µM | – | –
N[C@H]1CC[C@H](Nc2nc(NC3CCN(Cc4ccc(F)cc4F)CC3)c3ncn(C4CCCC4)c3n2)CC1 [Example 147-h, 2-[Trans-(4-aminocyclohexyl)amino]-6-[4-[1-(2,4-difluorobenzyl)piperidinylamino]-9-cyclopentylpurinetrihydrochloride] | 0.47 µM | 0.42 µM | 0.36 µM | 0.34 µM | 0.47 µM | 0.94 µM | 0.47 µM | – | 2800 nM and 1800 nM | 0.48 µM | 0.78 µM | 0.21 µM | 0.34 µM | 0.16 µM | 0.22 µM | 100 nM and 240 nM | 0.33 µM | 0.58 µM | – | –
